Activity calls are given as the source filed them. No cut-off for these calls is given here.
Assays:
Calvarial osteoblast [1] = assay: Induction of osteoblast differentiation in mouse calvarial osteoblasts assessed as increase in ALP activity at 1 pM incubated for 48 hrs by spectrophotometric analysis; assay type: functional, cell-based
MCF7 = assay: Antiproliferative activity against ER-positive human MCF7 cells assessed as reduction in cell growth at 50 ug/ml measured by MTT assay; assay type: functional; conditions: read-out: GI
MDA-MB-231 = assay: Antiproliferative activity against ER-negative human MDA-MB-231 cells assessed as reduction in cell growth at 50 ug/ml measured by MTT assay; assay type: functional; conditions: read-out: GI
PA-1 = assay: Antiproliferative activity against human PA-1 cells assessed as reduction in cell growth at 50 ug/ml measured by MTT assay; assay type: functional; conditions: read-out: GI
Calvarial osteoblast [2] = assay: Induction of osteoblast differentiation in mouse calvarial osteoblasts assessed as increase in ALP activity at 100 pM incubated for 48 hrs by spectrophotometric analysis; assay type: functional, cell-based
Calvarial osteoblast [3] = assay: Induction of osteoblast differentiation in mouse calvarial osteoblasts assessed as increase in bone mineralization at 1 pM incubated for 21 days by alizarin-red S dye based colorimetric analysis; assay type: functional, cell-based; conditions: time 21.0 day
Calvarial osteoblast [4] = assay: Induction of osteogenic differentiation in mouse calvarial osteoblasts assessed as increase in BMP2 mRNA expression level at 1 to 100 pM after 24 to 48 hrs by RT-qPCR analysis; assay type: functional, cell-based; conditions: dose 1-100 pM, time 24-48 hrs
Calvarial osteoblast [5] = assay: Induction of osteogenic differentiation in mouse calvarial osteoblasts assessed as increase in RUNX2 mRNA expression level at 1 to 100 pM after 24 to 48 hrs by RT-qPCR analysis; assay type: functional, cell-based; conditions: dose 1-100 pM, time 24-48 hrs
Calvarial osteoblast [6] = assay: Induction of osteogenic differentiation in mouse calvarial osteoblasts assessed as increase in Type-1 collagen mRNA expression level at 1 to 100 pM after 24 to 48 hrs by RT-qPCR analysis; assay type: functional, cell-based; conditions: dose 1-100 pM, time 24-48 hrs
Calvarial osteoblast [7] = assay: Cytotoxicity against mouse calvarial osteoblasts assessed as reduction in cell viability at 0.000001 to 1 uM measured after 48 hrs by MTT assay; assay type: cell-based; conditions: dose lower 1e-06 µM, dose upper 1 µM

## CNCCCCNC(=O)CCCCOc1ccc2c(c1)OC(C)(C)C/C2=C1/CC(C)(C)Oc2cc(OC)ccc21
Calvarial osteoblast [1]
  Activity: Active
MCF7
  inhibition of growth at 50 µg/mL: 25.2%
MDA-MB-231
  inhibition of growth at 50 µg/mL: 36.5%

## COc1ccc2c(c1)OC(C)(C)C/C2=C1/CC(C)(C)Oc2cc(OCCCCC(=O)N3CCN(C)CC3)ccc21
PA-1
  inhibition of growth at 50 µg/mL: 26.6%
MCF7
  inhibition of growth at 50 µg/mL: 25.2%
MDA-MB-231
  inhibition of growth at 50 µg/mL: 36.5%

## CNCCCCNC(=O)CCCCCOc1ccc2c(c1)OC(C)(C)C/C2=C1/CC(C)(C)Oc2cc(OC)ccc21
PA-1
  inhibition of growth at 50 µg/mL: 26.6%
MCF7
  inhibition of growth at 50 µg/mL: 25.2%
MDA-MB-231
  inhibition of growth at 50 µg/mL: 36.5%

## COc1ccc2c(c1)OC(C)(C)C/C2=C1/CC(C)(C)Oc2cc(OCCCCC(=O)N3CCCC3)ccc21
PA-1
  inhibition of growth at 50 µg/mL: 26.6%
MCF7
  inhibition of growth at 50 µg/mL: 25.2%
MDA-MB-231
  inhibition of growth at 50 µg/mL: 36.5%

## COc1ccc2c(c1)OC(C)(C)C/C2=C1/CC(C)(C)Oc2cc(OCCCCC(=O)N3CCCCC3)ccc21
PA-1
  inhibition of growth at 50 µg/mL: 26.6%
MCF7
  inhibition of growth at 50 µg/mL: 25.2%
MDA-MB-231
  inhibition of growth at 50 µg/mL: 36.5%

## COc1ccc2c(c1)OC(C)(C)C/C2=C1/CC(C)(C)Oc2cc(OCCCCCC(=O)N3CCCC3)ccc21
MCF7
  inhibition of growth at 50 µg/mL: 25.2%

## COc1ccc2c(c1)OC(C)(C)C/C2=C1/CC(C)(C)Oc2cc(OCCCC(=O)N3CCN(C)CC3)ccc21
Calvarial osteoblast [2]
  Activity: Active
MCF7
  inhibition of growth at 50 µg/mL: 25.2%

## COc1ccc2c(c1)OC(C)(C)C/C2=C1/CC(C)(C)Oc2cc(OCCCCCC(=O)NCCCCCCNC(=O)OC(C)(C)C)ccc21
Calvarial osteoblast [2]
  Activity: Active
PA-1
  inhibition of growth at 50 µg/mL: 26.6%
MCF7
  inhibition of growth at 50 µg/mL: 25.2%
MDA-MB-231
  inhibition of growth at 50 µg/mL: 36.5%

## COc1ccc2c(c1)OC(C)(C)C/C2=C1/CC(C)(C)Oc2cc(OCCCCCC(=O)N3CCCCC3)ccc21
PA-1
  inhibition of growth at 50 µg/mL: 26.6%
MDA-MB-231
  inhibition of growth at 50 µg/mL: 36.5%

## COc1ccc2c(c1)OC(C)(C)C/C2=C1/CC(C)(C)Oc2cc(O)ccc21
PA-1
  inhibition of growth at 50 µg/mL: 26.6%
MCF7
  inhibition of growth at 50 µg/mL: 25.2%
MDA-MB-231
  inhibition of growth at 50 µg/mL: 36.5%

## COc1ccc2c(c1)OC(C)(C)C/C2=C1/CC(C)(C)Oc2cc(OCCCC(=O)NCCCCCCNC(=O)OC(C)(C)C)ccc21
Calvarial osteoblast [1]
  Activity: Active
PA-1
  inhibition of growth at 50 µg/mL: 26.6%
MDA-MB-231
  inhibition of growth at 50 µg/mL: 36.5%

## COc1ccc2c(c1)OC(C)(C)C/C2=C1/CC(C)(C)Oc2cc(OC)ccc21
PA-1
  inhibition of growth at 50 µg/mL: 26.6%
MCF7
  inhibition of growth at 50 µg/mL: 25.2%
MDA-MB-231
  inhibition of growth at 50 µg/mL: 36.5%

## COc1ccc2c(c1)OC(C)(C)C/C2=C1/CC(C)(C)Oc2cc(OCCCC(=O)NCc3ccccn3)ccc21
PA-1
  inhibition of growth at 50 µg/mL: 26.6%

## COc1ccc2c(c1)OC(C)(C)C/C2=C1/CC(C)(C)Oc2cc(OCCCCCC(=O)N3CCN(C)CC3)ccc21
PA-1
  inhibition of growth at 50 µg/mL: 26.6%
MCF7
  inhibition of growth at 50 µg/mL: 25.2%

## COc1ccc2c(c1)OC(C)(C)C/C2=C1/CC(C)(C)Oc2cc(OCCCCC(=O)NCc3ccccn3)ccc21
PA-1
  inhibition of growth at 50 µg/mL: 26.6%
MCF7
  inhibition of growth at 50 µg/mL: 25.2%
MDA-MB-231
  inhibition of growth at 50 µg/mL: 36.5%

## CNCCCCNC(=O)CCCOc1ccc2c(c1)OC(C)(C)C/C2=C1/CC(C)(C)Oc2cc(OC)ccc21
MDA-MB-231
  inhibition of growth at 50 µg/mL: 36.5%

## COc1ccc2c(c1)OC(C)(C)C/C2=C1/CC(C)(C)Oc2cc(OCCCCCC(=O)NCc3ccccn3)ccc21
MDA-MB-231
  inhibition of growth at 50 µg/mL: 36.5%

## COc1ccc2c(c1)OC(C)(C)C/C2=C1/CC(C)(C)Oc2cc(OCCCC(=O)N3CCCC3)ccc21
Calvarial osteoblast [1]
  Activity: Active
PA-1
  inhibition of growth at 50 µg/mL: 26.6%
MCF7
  inhibition of growth at 50 µg/mL: 25.2%
MDA-MB-231
  inhibition of growth at 50 µg/mL: 36.5%

## COc1ccc2c(c1)OC(C)(C)C/C2=C1/CC(C)(C)Oc2cc(OCCCC(=O)N3CCCCC3)ccc21
Calvarial osteoblast [1]
  Activity: Active
Calvarial osteoblast [3]
  Activity: Active
Calvarial osteoblast [4]
  Activity: Active
Calvarial osteoblast [5]
  Activity: Active
Calvarial osteoblast [6]
  Activity: Active
PA-1
  inhibition of growth at 50 µg/mL: 68.3%
Calvarial osteoblast [7]
  Activity: Non-Toxic
MCF7
  inhibition of growth at 50 µg/mL: 26.1%
MDA-MB-231
  inhibition of growth at 50 µg/mL: 15.9%

Source: ChEMBL document CHEMBL4808250, “Synthesis and biological evaluation of substituted amide derivatives of C4-ageratochromene dimer analog” (Bioorg Med Chem Lett, 2021)
